# Data as given in ChEMBL document CHEMBL3046436, “Effects of 1,3-dichloropropene as a methyl bromide alternative for management of nematode, soil-borne disease, and weed in ginger (Zingiber officinale) crops in China” (2012).
# Activity calls are given as the source filed them. The calls are words filed in the database; no cut-off is given here.
# Key:
# Zingiber officinale [1] = test: Increase in plant height of Zingiber officinale (ginger) plants at 400 kg/ha applied through fumigation protocol (reference value: 79.6 cm); type: functional
# Zingiber officinale [2] = test: Increase in stem diameter of Zingiber officinale (ginger) plants at 400 kg/ha applied through fumigation protocol (reference value: 11.3 mm); type: functional
# Stellaria media [3] = test: Herbicidal activity against Stellaria media assessed as reduction in weed populations at 400 kg/ha; type: functional, organism-based
# Zingiber officinale [4] = test: Increase in extra-large fruit yield in Zingiber officinale (ginger) plants at 400 kg/ha applied through fumigation protocol (reference value: 3.5 ton/ha); type: functional
# Digitaria sanguinalis [5] = test: Herbicidal activity against Digitaria sanguinalis (hairy crabgrass) assessed as reduction in weed populations at 400 kg/ha; type: functional, organism-based
# Zingiber officinale [6] = test: Increase in marketable fruit yield in Zingiber officinale (ginger) plants at 400 kg/ha applied through fumigation protocol (reference value: 48.2 ton/ha); type: functional
# Meloidogyne incognita [7] = test: Nematicidal activity against Meloidogyne incognita (root-knot nematode) in ginger crop fields assessed as number of nematodes per 100 cm3 soil at 400 kg/ha measured after 20 days post compound application (reference value: 56.7 nematodes in 100 cm3 soil); type: functional
# Meloidogyne incognita [8] = test: Nematicidal activity against Meloidogyne incognita (root-knot nematode) in ginger crop fields assessed as number of nematodes per 100 cm3 soil at 400 kg/ha measured after 60 days post compound application (reference value: 88.2 nematodes in 100 cm3 soil); type: functional
# Meloidogyne incognita [9] = test: Nematicidal activity against Meloidogyne incognita (root-knot nematode) in ginger crop fields assessed as number of nematodes per 100 cm3 soil at 400 kg/ha measured after 40 days post compound application (reference value: 75.3 nematodes in 100 cm3 soil); type: functional
# Ralstonia solanacearum [10] = test: Antimicrobial activity against Ralstonia solanacearum in ginger plants fields assessed as reduction in ginger blast-induced plant mortality at 400 kg/ha applied through fumigation protocol; type: functional, organism-based
# Meloidogyne incognita [11] = test: Nematicidal activity against Meloidogyne incognita (root-knot nematode) in ginger crop fields assessed as root galling index at 400 kg/ha measured after 60 days post compound application (reference value: 5.49 root galling index); type: functional
# Zingiber officinale [12] = test: Increase in large fruit yield in Zingiber officinale (ginger) plants at 400 kg/ha applied through fumigation protocol (reference value: 20.1 ton/ha); type: functional
# Zingiber officinale [13] = test: Increase in medium fruit yield in Zingiber officinale (ginger) plants at 400 kg/ha applied through fumigation protocol (reference value: 24.6 ton/ha); type: functional
# Capsella bursa-pastoris [14] = test: Herbicidal activity against Capsella bursa-pastoris assessed as reduction in weed populations at 400 kg/ha; type: functional, organism-based
# Zingiber officinale [15] = test: Increase in extra-large fruit yield in Zingiber officinale (ginger) plants at 90 L/ha applied through fumigation protocol (reference value: 3.5 ton/ha); type: functional
# Zingiber officinale [16] = test: Increase in stem diameter of Zingiber officinale (ginger) plants at 180 L/ha applied through fumigation protocol (reference value: 11.3 mm); type: functional
# Zingiber officinale [17] = test: Increase in plant height of Zingiber officinale (ginger) plants at 120 L/ha applied through fumigation protocol (reference value: 79.6 cm); type: functional
# Zingiber officinale [18] = test: Increase in marketable fruit yield in Zingiber officinale (ginger) plants at 90 L/ha applied through fumigation protocol (reference value: 48.2 ton/ha); type: functional
# Zingiber officinale [19] = test: Increase in stem diameter of Zingiber officinale (ginger) plants at 90 L/ha applied through fumigation protocol (reference value: 11.3 mm); type: functional
# Zingiber officinale [20] = test: Increase in large fruit yield in Zingiber officinale (ginger) plants at 180 L/ha applied through fumigation protocol (reference value: 20.1 ton/ha); type: functional
# Capsella bursa-pastoris [21] = test: Herbicidal activity against Capsella bursa-pastoris assessed as reduction in weed populations at 90 to 180 L/ha; type: functional, organism-based
# Stellaria media [22] = test: Herbicidal activity against Stellaria media assessed as reduction in weed populations at 90 to 180 L/ha; type: functional, organism-based
# Zingiber officinale [23] = test: Increase in marketable fruit yield in Zingiber officinale (ginger) plants at 180 L/ha applied through fumigation protocol (reference value: 48.2 ton/ha); type: functional
# Digitaria sanguinalis [24] = test: Herbicidal activity against Digitaria sanguinalis (hairy crabgrass) assessed as reduction in weed populations at 90 to 180 L/ha; type: functional, organism-based
# Zingiber officinale [25] = test: Increase in medium fruit yield in Zingiber officinale (ginger) plants at 180 L/ha applied through fumigation protocol (reference value: 24.6 ton/ha); type: functional
# Meloidogyne incognita [26] = test: Nematicidal activity against Meloidogyne incognita (root-knot nematode) in ginger crop fields assessed as number of nematodes per 100 cm3 soil at 120 L/ha measured after 20 days post compound application (reference value: 56.7 nematodes in 100 cm3 soil); type: functional
# Zingiber officinale [27] = test: Increase in large fruit yield in Zingiber officinale (ginger) plants at 120 L/ha applied through fumigation protocol (reference value: 20.1 ton/ha); type: functional
# Meloidogyne incognita [28] = test: Nematicidal activity against Meloidogyne incognita (root-knot nematode) in ginger crop fields assessed as root galling index at 180 L/ha measured after 60 days post compound application (reference value: 5.49 root galling index); type: functional
# Zingiber officinale [29] = test: Increase in leaves number of Zingiber officinale (ginger) plants at 90 to 180 L/ha applied through fumigation protocol; type: functional, organism-based
# Zingiber officinale [30] = test: Increase in extra-large fruit yield in Zingiber officinale (ginger) plants at 180 L/ha applied through fumigation protocol (reference value: 3.5 ton/ha); type: functional
# Zingiber officinale [31] = test: Increase in plant height of Zingiber officinale (ginger) plants at 90 L/ha applied through fumigation protocol (reference value: 79.6 cm); type: functional
# Meloidogyne incognita [32] = test: Nematicidal activity against Meloidogyne incognita (root-knot nematode) in ginger crop fields assessed as number of nematodes per 100 cm3 soil at 180 L/ha measured after 60 days post compound application (reference value: 88.2 nematodes in 100 cm3 soil); type: functional
# Meloidogyne incognita [33] = test: Nematicidal activity against Meloidogyne incognita (root-knot nematode) in ginger crop fields assessed as number of nematodes per 100 cm3 soil at 180 L/ha measured after 20 days post compound application (reference value: 56.7 nematodes in 100 cm3 soil); type: functional
# Zingiber officinale [34] = test: Increase in marketable fruit yield in Zingiber officinale (ginger) plants at 120 L/ha applied through fumigation protocol (reference value: 48.2 ton/ha); type: functional
# Meloidogyne incognita [35] = test: Nematicidal activity against Meloidogyne incognita (root-knot nematode) in ginger crop fields assessed as number of nematodes per 100 cm3 soil at 120 L/ha measured after 40 days post compound application (reference value: 75.3 nematodes in 100 cm3 soil); type: functional
# Ralstonia solanacearum [36] = test: Antimicrobial activity against Ralstonia solanacearum in ginger plants fields assessed as reduction in ginger blast-induced plant mortality at 120 to 180 L/ha applied through fumigation protocol; type: functional, organism-based
# Meloidogyne incognita [37] = test: Nematicidal activity against Meloidogyne incognita (root-knot nematode) in ginger crop fields assessed as number of nematodes per 100 cm3 soil at 180 L/ha measured after 40 days post compound application (reference value: 75.3 nematodes in 100 cm3 soil); type: functional
# Meloidogyne incognita [38] = test: Nematicidal activity against Meloidogyne incognita (root-knot nematode) in ginger crop fields assessed as number of nematodes per 100 cm3 soil at 120 L/ha measured after 60 days post compound application (reference value: 88.2 nematodes in 100 cm3 soil); type: functional
# Meloidogyne incognita [39] = test: Nematicidal activity against Meloidogyne incognita (root-knot nematode) in ginger crop fields assessed as number of nematodes per 100 cm3 soil at 90 L/ha measured after 20 days post compound application (reference value: 56.7 nematodes in 100 cm3 soil); type: functional
# Zingiber officinale [40] = test: Increase in stem diameter of Zingiber officinale (ginger) plants at 120 L/ha applied through fumigation protocol (reference value: 11.3 mm); type: functional
# Zingiber officinale [41] = test: Increase in medium fruit yield in Zingiber officinale (ginger) plants at 120 L/ha applied through fumigation protocol (reference value: 24.6 ton/ha); type: functional
# Zingiber officinale [42] = test: Increase in shoots number of Zingiber officinale (ginger) plants at 90 to 180 L/ha applied through fumigation protocol; type: functional, organism-based
# Meloidogyne incognita [43] = test: Nematicidal activity against Meloidogyne incognita (root-knot nematode) in ginger crop fields assessed as number of nematodes per 100 cm3 soil at 90 L/ha measured after 60 days post compound application (reference value: 88.2 nematodes in 100 cm3 soil); type: functional
# Meloidogyne incognita [44] = test: Nematicidal activity against Meloidogyne incognita (root-knot nematode) in ginger crop fields assessed as number of nematodes per 100 cm3 soil at 90 L/ha measured after 40 days post compound application (reference value: 75.3 nematodes in 100 cm3 soil); type: functional
# Zingiber officinale [45] = test: Increase in medium fruit yield in Zingiber officinale (ginger) plants at 90 L/ha applied through fumigation protocol (reference value: 24.6 ton/ha); type: functional
# Meloidogyne incognita [46] = test: Nematicidal activity against Meloidogyne incognita (root-knot nematode) in ginger crop fields assessed as root galling index at 120 L/ha measured after 60 days post compound application (reference value: 5.49 root galling index); type: functional
# Meloidogyne incognita [47] = test: Nematicidal activity against Meloidogyne incognita (root-knot nematode) in ginger crop fields assessed as root galling index at 90 L/ha measured after 60 days post compound application (reference value: 5.49 root galling index); type: functional
# Zingiber officinale [48] = test: Increase in plant height of Zingiber officinale (ginger) plants at 180 L/ha applied through fumigation protocol (reference value: 79.6 cm); type: functional
# Zingiber officinale [49] = test: Increase in large fruit yield in Zingiber officinale (ginger) plants at 90 L/ha applied through fumigation protocol (reference value: 20.1 ton/ha); type: functional
structure (smiles),measurement,setting,value
CBr [BROMOMETHANE],Activity,Zingiber officinale [1],91.3 cm
same,Activity,Zingiber officinale [2],13.5 mm
same,Activity,Stellaria media [3],Active
same,Crop_yield,Zingiber officinale [4],8.6 tons/ha
same,Activity,Digitaria sanguinalis [5],Active
same,Crop_yield,Zingiber officinale [6],76.4 tons/ha
same,Activity,Meloidogyne incognita [7],22.3 /10'2cm3
same,Activity,Meloidogyne incognita [8],47.4 /10'2cm3
same,Activity,Meloidogyne incognita [9],31.6 /10'2cm3
same,Activity,Ralstonia solanacearum [10],Active
same,Root_galling_index,Meloidogyne incognita [11],2.68
same,Crop_yield,Zingiber officinale [12],28.7 tons/ha
same,Crop_yield,Zingiber officinale [13],39.1 tons/ha
same,Activity,Capsella bursa-pastoris [14],Active
"Cl/C=C/CCl [1,3-DICHLOROPROPENE]",Crop_yield,Zingiber officinale [15],7.4 tons/ha
same,Activity,Zingiber officinale [16],13.9 mm
same,Activity,Zingiber officinale [17],85.4 cm
same,Crop_yield,Zingiber officinale [18],64.7 tons/ha
same,Activity,Zingiber officinale [19],12.1 mm
same,Crop_yield,Zingiber officinale [20],29.5 tons/ha
same,Activity,Capsella bursa-pastoris [21],inactive
same,Activity,Stellaria media [22],inactive
same,Crop_yield,Zingiber officinale [23],75.8 tons/ha
same,Activity,Digitaria sanguinalis [24],inactive
same,Crop_yield,Zingiber officinale [25],38.2 tons/ha
same,Activity,Meloidogyne incognita [26],24.2 /10'2cm3
same,Crop_yield,Zingiber officinale [27],26.9 tons/ha
same,Root_galling_index,Meloidogyne incognita [28],2.31
same,Activity,Zingiber officinale [29],Active
same,Crop_yield,Zingiber officinale [30],8.1 tons/ha
same,Activity,Zingiber officinale [31],82.6 cm
same,Activity,Meloidogyne incognita [32],36.9 /10'2cm3
same,Activity,Meloidogyne incognita [33],17.3 /10'2cm3
same,Crop_yield,Zingiber officinale [34],71.1 tons/ha
same,Activity,Meloidogyne incognita [35],38.4 /10'2cm3
same,Activity,Ralstonia solanacearum [36],Active
same,Activity,Meloidogyne incognita [37],27.3 /10'2cm3
same,Activity,Meloidogyne incognita [38],45.5 /10'2cm3
same,Activity,Meloidogyne incognita [39],33.6 /10'2cm3
same,Activity,Zingiber officinale [40],12.8 mm
same,Crop_yield,Zingiber officinale [41],36.3 tons/ha
same,Activity,Zingiber officinale [42],Active
same,Activity,Meloidogyne incognita [43],58.5 /10'2cm3
same,Activity,Meloidogyne incognita [44],45.1 /10'2cm3
same,Crop_yield,Zingiber officinale [45],32.4 tons/ha
same,Root_galling_index,Meloidogyne incognita [46],3.34
same,Root_galling_index,Meloidogyne incognita [47],3.66
same,Activity,Zingiber officinale [48],88.9 cm
same,Crop_yield,Zingiber officinale [49],24.9 tons/ha
